# Where two headings read alike, the source gives them in different places.
# Assays:
# [1] = Membrane off-binding rate (koff) of FtsA from FRAP
# Source text: We could also use the data from these bleaching experiments to quantify the membrane-binding kinetics and diffusion of membrane-bound proteins by analysing the change of the fluorescence profile during recovery.
# Equimolar concentrations of Cy3- and Cy5-labelled FtsA, supplemented with 20% unlabelled FtsA were used to study FRET and FRAP. Five pre-bleach frames were acquired, followed by acceptor photobleaching of a rectangular ROI with 40% 641 nm laser power and a dwell size of 1 µs/pixel, 75% overlapping lines. The recovery of the signal or the increase in donor intensity were measured with either two frames or one frame per second.
# Bleaching the acceptor dye leads to an increase in the donor intensity, which can be used to quantify the Foerster Resonance energy transfer (FRET)[48]. FRET efficiency was quantified with E%=Ipost/Ipost+Ipre⋅100 , where Ipost is the intensity of the […] and Ipre is the […]. […] To extract the contribution of both processes, we adjusted a routine recently published by Gerganova et al.[33]. In short, the code provides the contribution of both modes of recovery by analysing the shape of the fluorescence recovery profile. […] Contribution of diffusion leads to a change of the slope of the outer borders of the bleached region (S4h right). Thus, by measuring the change of the slope of the border recovery, diffusion and simple on/off binding can be distinguished. We developed “FRAPdiff”, a graphical user interface, which uses the original fit routine by David Rutkowski. It can be used directly on.tiff movies with annotated bleach regions as ImageJ ROIs. In addition, we added optional bleach correction, user selectable projection axis (x or y), and optional mirroring of the recovery profiles, if bleaching was not symmetric. The original fit routine for estimating the recovery and diffusion dynamics can be found at https://github.com/davidmrutkowski/1DReflectingDiffusion. FRAPdiff is available at 10.5281/zenodo.6400639[49] under the GPLv3 open-source license.
# [2] = test system: FtsZ; settings: His-tagged FtsA
# Method: (§1) Co-treadmilling of FtsA with FtsZ relies on the dynamic exchange of FtsA on the membrane. […] To investigate the respective contributions of membrane binding kinetics and FtsA self-interaction on the colocalization dynamics with FtsZ, we wanted to create variants of the two FtsA proteins that are permanently attached to the membrane. […] Accordingly, in these experiments the proteins only differ in their tendency to form oligomers.
# (§2) To study colocalization of His-tagged variants of FtsA, 0.5–1 µM of Cy5 labelled His-tagged FtsAs were added to the chamber, incubated for 20 min and washed 6x with reaction buffer. […] To control the density of membrane-bound FtsA, SUVs without and with Tris-NTA lipids were mixed to obtain the respective Tris-NTA concentrations. To perform FRET/FRAP experiments, equimolar concentrations of Cy3 and Cy5 labelled His-tagged FtsAs (total 0.5–1 µM) or His-SUMO-Cys were added to a chamber and treated as above. […] FRAP experiments were performed as described before.
# Time-lapse videos were first intensity-corrected and contrast-enhanced to avoid bleaching effects and simplify subsequent analysis. To remove contributions of X–Y drift, the videos were processed with the Linear Stack Alignment with SIFT plugin. Proper alignment was checked with the 3TP align plugin (J. A. Parker; Beth Israel Deaconess Medical Center, Boston). Subsequently, regions of interest (ROIs) in the center of the stacks were chosen for colocalization analysis. The Pearson’s correlation coefficient (PCC) was quantified with the Image CorrelationJ 1o plugin. To extract information about the relative ratio of FtsZ/FtsA molecules (slope of linear regression), we also used the Image CorrelationJ 1o plugin. As an output, the plugin provides a scatterplot of FtsZ vs FtsA intensities, to which we fitted a linear slope y=k⋅x+d , where k is the slope and d the offset. The slope was used as an estimate for the ratio of FtsA molecules below FtsZ filaments.
# [3] = test system: FtsZ; settings: His-tagged FtsA; remark: listed apart in the source
# Method: as §1, §2
# Treadmilling dynamics, were quantified using an automated image analysis protocol previously developed by our group. To visualize colocalization of the co-treadmilling FtsZ & FtsA filaments, we used dual-colour videos obtained at an acquisition rate of one frame per 2 s. The two channels were aligned using FIJI’s 3TP align plugin. Both channels were then subjected to the image subtraction protocol and colocalization was measured as described above.
# [4] = 0.60% Tris NTA, Exp. 1 (statistical analysis)
# [5] = 0.60% Tris NTA, Exp. 2 (statistical analysis)
# [6] = 0.80% Tris NTA, Exp. 1 (statistical analysis)
# [7] = 0.80% Tris NTA, Exp. 3 (statistical analysis)
# [8] = 1.00% Tris NTA, Exp. 1 (statistical analysis)
# [9] = 1.00% Tris NTA, Exp. 2 (statistical analysis)
# [10] = 1.00% Tris NTA, Exp. 3 (statistical analysis)
# [11] = 2.00% Tris NTA, Exp. 1 (statistical analysis)
# [12] = 2.00% Tris NTA, Exp. 2 (statistical analysis)
# [13] = 2.00% Tris NTA, Exp. 3 (statistical analysis)
# [14] = […] Tris NTA, Exp. 1 (statistical analysis)
# [15] = […] Tris NTA, Exp. 2 (statistical analysis)
# [16] = […] Tris NTA, Exp. 3 (statistical analysis)
substance,measurement,setting,value
"FtsA WT: wild-type E. coli actin-homologue FtsA, membrane anchor of FtsZ","Off binding rate, mean",[1]; 0.1 µM FtsA + FtsN&Z,0.018 s
same,"Off binding rate, mean",[1]; 0.1 µM FtsA + FtsN,0.032 s
same,"Off binding rate, mean",[1]; 0.1 µM FtsA + FtsZ,0.0428 s
same,"Off binding rate, mean",[1]; 0.1 µM FtsA alone,0.0544 s
same,"Off binding rate, mean",[1]; 0.2 µM FtsA + FtsN&Z,0.0128 s
same,"Off binding rate, mean",[1]; 0.2 µM FtsA + FtsN,0.026 s
same,"Off binding rate, mean",[1]; 0.2 µM FtsA + FtsZ,0.0502 s
same,"Off binding rate, mean",[1]; 0.2 µM FtsA alone,0.0443 s
same,"Off binding rate, mean",[1]; 0.4 µM FtsA + FtsN&Z,0.0174 s
same,"Off binding rate, mean",[1]; 0.4 µM FtsA + FtsN,0.0196 s
same,"Off binding rate, mean",[1]; 0.4 µM FtsA + FtsZ,0.0502 s
same,"Off binding rate, mean",[1]; 0.4 µM FtsA alone,0.0375 s
same,membrane exchange (off-rate),"[1]; 0.4 µM FtsA, p-value 6.73 × 10^−6",0.04 ± 0.01 s⁻¹
same,"Off binding rate, mean",[1]; 0.8 µM FtsA + FtsN&Z,0.0278 s
same,"Off binding rate, mean",[1]; 0.8 µM FtsA + FtsN,0.0277 s
same,"Off binding rate, mean",[1]; 0.8 µM FtsA + FtsZ,0.0562 s
same,"Off binding rate, mean",[1]; 0.8 µM FtsA alone,0.0396 s
same,Off binding rate,"[1]; Fig. S3i/S3j, 0.10 µM FtsA, replicate 1",0.0471 s⁻¹
same,Off binding rate,"[1]; Fig. S3i/S3j, 0.10 µM FtsA, replicate 2",0.024 s⁻¹
same,Off binding rate,"[1]; Fig. S3i/S3j, 0.10 µM FtsA, replicate 3",0.0306 s⁻¹
same,Off binding rate,"[1]; Fig. S3i/S3j, 0.10 µM FtsA, replicate 4",0.0374 s⁻¹
same,Off binding rate,"[1]; Fig. S3i/S3j, 0.10 µM FtsA, summary value",0.0544 s⁻¹
same,Off binding rate,"[1]; Fig. S3i/S3j, 0.20 µM FtsA, summary value",0.0443 s⁻¹
same,Off binding rate,"[1]; Fig. S3i/S3j, 0.40 µM FtsA, summary value",0.0375 s⁻¹
same,Off binding rate,"[1]; Fig. S3i/S3j, 0.80 µM FtsA, summary value",0.0396 s⁻¹
same,Off binding rate,"[1]; Fig. S3m, AMP PNP, 0.10 µM FtsA, replicate 1",0.0505 s⁻¹
same,Off binding rate,"[1]; Fig. S3m, AMP PNP, 0.10 µM FtsA, replicate 2",0.0348 s⁻¹
same,Off binding rate,"[1]; Fig. S3m, AMP PNP, 0.20 µM FtsA, replicate 1",0.0493 s⁻¹
same,Off binding rate,"[1]; Fig. S3m, AMP PNP, 0.20 µM FtsA, replicate 2",0.0628 s⁻¹
same,Off binding rate,"[1]; Fig. S3m, AMPPNP, 0.10 µM FtsA, summary value",0.04 s⁻¹
same,Off binding rate,"[1]; Fig. S3m, AMPPNP, 0.20 µM FtsA, summary value",0.06 s⁻¹
same,Off binding rate,"[1]; Fig. S3m, AMPPNP, 0.40 µM FtsA, summary value",0.08 s⁻¹
same,Off binding rate,"[1]; Fig. S3m, AMPPNP, 0.80 µM FtsA, summary value",0.06 s⁻¹
same,Off binding rate,"[1]; Fig. S3m, ATP, 0.10 µM FtsA, summary value",0.05 s⁻¹
same,Off binding rate,"[1]; Fig. S3m, ATP, 0.20 µM FtsA, summary value",0.04 s⁻¹
same,Off binding rate,"[1]; Fig. S3m, ATP, 0.40 µM FtsA, summary value",0.04 s⁻¹
same,Off binding rate,"[1]; Fig. S3m, ATP, 0.80 µM FtsA, summary value",0.04 s⁻¹
same,Off binding rate,"[1]; Fig. S3m, ATPgS, 0.10 µM FtsA, summary value",0.0254 s⁻¹
same,Off binding rate,"[1]; Fig. S3m, ATPgS, 0.20 µM FtsA, summary value",0.0233 s⁻¹
same,Off binding rate,"[1]; Fig. S3m, ATPgS, 0.40 µM FtsA, summary value",0.0157 s⁻¹
same,Off binding rate,"[1]; Fig. S3m, ATPgS, 0.80 µM FtsA, summary value",0.0252 s⁻¹
same,membrane off-rate,[1]; in the presence of FtsZ,~0.05 s⁻¹
same,time bound relative to FtsZ monomers (times longer),[1]; in the presence of FtsZ,2–4 times
same,PCC,[2]; [4],0.58
same,PCC,[2]; [5],0.73
same,"PCC, Mean","[2]; 0.60% Tris NTA, n = 2 (WT), 3 (R286W), sd 0.07, 0.08, p-value 0.39",0.65
same,PCC,[2]; [6],0.66
same,PCC,"[2]; 0.80% Tris NTA, Exp. 2 (statistical analysis)",0.70
same,PCC,[2]; [7],0.68
same,"PCC, Mean","[2]; 0.80% Tris NTA, n = 3, 3, sd 0.0141 (WT), 0.0648 (R286W), p-value 0.61",0.68
same,PCC,[2]; [8],0.53
same,PCC,[2]; [9],0.60
same,PCC,[2]; [10],0.73
same,PCC,"[2]; 1.00% Tris NTA, Exp. 4 (statistical analysis)",0.53
same,"PCC, Mean","[2]; 1.00% Tris NTA, n = 4 (WT), 3 (R286W), sd 0.08, 0.0316, p-value 6.25E-02",0.60
same,PCC,[2]; [11],0.12
same,PCC,[2]; [12],0.14
same,PCC,[2]; [13],0.16
same,"PCC, Mean","[2]; 2.00% Tris NTA, n = 3, 3, sd 0.0143 (WT), 0.04 (R286W), p-value 1.59E-04",0.14
same,PCC,[2]; [14],0.16
same,PCC,[2]; [15],0.0429
same,PCC,[2]; [16],0.18
same,"PCC, Mean","[2]; […] Tris NTA, n = 3, 3, sd 0.06 (WT), 0.02 (R286W), p-value 3.86E-04",0.13
same,Differential PCC,[3]; [4],0.51
same,Differential PCC,[3]; [5],0.47
same,"Differential PCC, Mean","[3]; 0.60% Tris NTA, n = 2 (WT), 3 (R286W), sd 0.02, 0.057, p-value 0.67",0.49
same,Differential PCC,[3]; [6],0.49
same,Differential PCC,[3]; [7],0.47
same,"Differential PCC, Mean","[3]; 0.80% Tris NTA, n = 3, 3, sd 0.05 (WT), 0.0749 (R286W), p-value 0.13",0.45
same,Differential PCC,[3]; [8],0.49
same,Differential PCC,[3]; [9],0.28
same,Differential PCC,[3]; [10],0.23
same,"Differential PCC, Mean","[3]; 1.00% Tris NTA, n = 3, 3, sd 0.12 (WT), 0.0377 (R286W), p-value 5.89E-02",0.33
same,Differential PCC,[3]; [11],0.06
same,Differential PCC,[3]; [12],0.14
same,Differential PCC,[3]; [13],0.0238
same,"Differential PCC, Mean","[3]; 2.00% Tris NTA, n = 3, 3, sd 0.0469 (WT), 0.04 (R286W), p-value 2.27E-03",0.0739
same,Differential PCC,[3]; [14],0.05
same,Differential PCC,[3]; [15],0.035
same,Differential PCC,[3]; [16],0.12
same,"Differential PCC, Mean","[3]; […] Tris NTA, n = 3, 3, sd 0.0371 (WT), 0.02 (R286W), p-value 5.70E-04",0.07

# Reference: publication PMC9098913, “In vitro reconstitution of Escherichia coli divisome activation” (Nature Communications, 2022)
